Results on seven molecules are retold here after patent US8916574B2, “4-(substituted anilino)-quinazoline derivatives useful as tyrosine kinase inhibitors” (Qilu Pharmaceutical Co., Ltd., priority 2009, dated 2014).

Series [1] addresses Her2 receptor tyrosine kinase (Homo sapiens (Human), UniProt P04626). As to the kind of experiment: In vitro kinase analysis, HTScan HER2/ErbB2 Kinase Assay Kit (substrate peptide phosphorylation). Format: biochemical. The procedure:
(§1) Operation steps refer to the specification of the used kits, and the method was used to measure the inhibition effects of the compound to be tested on substrate peptide phosphorylation of EGFR or Her2 receptor tyrosine kinase. At room temperature, ATP and substrate peptide as well as the compound to be tested were incubated in kinase reaction buffer, after a period of incubation, a stop buffer was added to terminate the reaction and the sample was transferred to a streptavidin-coated 96-well plate, the plate was washed and the phosphorylation level of substrate peptide was detected by using HRP-marked antibody against substrate phosphorylation, colorated with TMB, terminated the reaction with 2M sulfuric acid. Absorption at 450 nm wavelength was detected, and IC50 value (μM) was calculated.

Series [2] deals with EGFR receptor tyrosine kinase (Homo sapiens (Human), UniProt P00533). As to the kind of experiment: In vitro kinase analysis, HTScan EGF Receptor Kinase Assay Kit (substrate peptide phosphorylation). The format is biochemical. The procedure: as §1
Series [3] is described as follows: Pharmacokinetics in SD rats after a single intragastric dose. The format is in vivo. Particulars: 100 mg/kg intragastric single dose, plasma. How it is done: The animals were fasted for 12 h before test, drinking water freely. And fed after 2 h of administration. At 0.25, 0.5, 1.0, 2.0, 3.0, 5.0, 7.0, 9.0, 12 and 24 h after administration, 0.3 ml blood samples were taken from venous plexus behind eyeball of rats into heparinized test tubes, then centrifuged at 11000 rpm for 5 min, plasma were separated, and preserved at […]. The concentrations of drug in original form and metabolites thereof in plasma were measured by liquid chromatography-mass spectrometry.

Series [4] addresses hERG potassium currents (IKr) (Homo sapiens (Human), UniProt Q12809). As to the kind of experiment: hERG potassium currents, whole cell patch clamp in transfected HEK293 cells. The following applies: HEK293 cells transfected with hERG cDNA. Format: cell-based. Background: hERG is a cardiac potassium channel; its block is linked to QT prolongation.
Series [5] has as its system human gastric cancer cell line NCI-N87. As to the kind of experiment: Test of cell proliferation inhibition (SRB), N87. Format: cell-based. Particulars: for IC50: Homo sapiens, NCI-N87, 72 h, read-out: Test of cell proliferation inhibition IC50 N87. The procedure:
(§2) The test was performed by referring to the method as described by Rusnak et al., Cell Prolif, 2007, 40, 580-594. The test of cell proliferation inhibition used human breast cancer cells BT474 and human gastric cancer cell line NCI-N87, BT474 over-expressing Her2 receptor, N87 over-expressing EGFR and Her2 receptor.
(§3) In a Dulbecco Modified Eagle Medium (DMEM) comprising 10% fetal bovine serum, 2 mM glutamine and non-essential amino acids, cells were cultured at 37° C. in 5% CO2 cell incubator, and trypsin/ethylenediamine tetraacetic acid (EDTA) were used to harvest cells in cell culture bottle. […] The change of cell form was observed under microscope, then 50 μl 50% (mass/volume)trichloroacetic acid (TCA) was added to per well to fix cells. The final concentration of TCA was 10%, standing for 5 min and placing in 4° C. refrigerator for 1 h, the wells of the culture plate were washed with deionized water for 5 times to remove TCA, drained, dried in air until no wet trace was observed. 100 μl of 0.4% (mass/volume) SRB was added to each well, stood at room temperature for 10 min, the liquid in each well was discarded, then the wells were washed with 1% acetic acid for 5 times, dried in air, extracted with 150 μl of 10 mM Tris base (trihydroxymethylaminomethane, pH 10.5), the absorption at 540 nm wavelength was detected.

For series [6], the system named is human breast cancer cells BT474. The series is described as follows: Test of cell proliferation inhibition (SRB), BT474. The format is cell-based. The following applies: BT-474, 72 h. How it is done:
as §2, §3

For series [7], the system named is human gastric cancer NCI-N87 transplanted tumor. As to the kind of experiment: Tumor inhibition at a single dose, NCI-N87 transplanted tumor in nude mice. The format is in vivo, BALB/cA-nude mice. The following applies: 200 mg/kg intragastrically, once per day, 28 days; for Rate of tumor inhibition d21 (%): head prints d21; for d28 Vave (tumor volume): in mm³; for Animal number in each group: Partial regression: of 6 animals. The text has this: (§4) BALB/cA-nude mice, female, 4-6 weeks, body weight 22±2 g, were purchased from Shanghai SLAC Laboratory Animal Co. Ltd, raised in SPF grade environment.
(§5) In vitro cultured NCI-N87 cells were subcutaneously inoculated at right axillary fossa of nude mice, each was inoculated with about 5×10^6 cells, and passaged twice in vivo after tumor formation. Under sterile conditions, eugonic tumor tissues were cut into tumor pieces of about 1.5 mm^3, and inoculated at right axillary fossa of nude mice. Tumor diameters were measured by vernier caliper, the animals were randomly divided (d0) after the tumors grew to 100-200 mm^3. […] During administration period, the body weight of mice and the diameter of tumors were measured 3 times per week. The tumor volume and relative tumor volume were calculated according to the measured data, the formulation for calculating tumor volume (TV) is: TV=½×a×b^2, wherein a, b represent major diameter and minor diameter of tumor; the formulation for calculating relative tumor volume (RTV) is: RTV=Vt/V0, wherein V0 is the tumor volume measured when dividing groups for administration (i.e., d0), Vt is tumor volume measured each time. […] The formulation for calculating relative tumor inhibition rate is: 1−T/C (%).

The subject of series [8] is human ovarian cancer SK-OV-3 transplanted tumor. As to the kind of experiment: Tumor inhibition at a single dose, SK-OV-3 transplanted tumor in nude mice. Format: in vivo, BALB/cA-nude mice. The following applies: 200 mg/kg intragastrically, once per day, 21 days; for Animal number in each group: Partial regression: of 6 animals.
From the text: as §4, §5
Nude mice were subcutaneously inoculated with human ovarian cancer SK-OV-3 cells, after tumors grew to 60-150 mm^3, the animals were randomly divided into groups (d0). […] During the administration period, the body weight of mice and the diameter of tumor were measured 3 times per week. The tumor volume, relative tumor inhibition rate and so on were calculated according to the aforementioned methods.

Series [9] has the same test system. As to the kind of experiment: Tumor inhibition at different dosages, SK-OV-3 transplanted tumor in nude mice. Format: in vivo, BALB/cA-nude mice. The following applies: once per day, 21 days; for Animal number in each group: Partial regression: of 6 animals.
From the text: as §4, §5
Nude mice were subcutaneously inoculated with human ovarian cancer SK-OV-3 cells, after tumors grew to 60-150 mm^3, the animals were randomly divided into groups (d0). […] The tumor volume, and body weight of mice were measured 3 times per week, and all data were recorded. The tumor volume, relative tumor inhibition rate and so on were calculated according to the aforementioned methods.

Where two headings read alike, the source gives them in different places.

EGFR receptor tyrosine kinase, sequence (P00533 25-1210): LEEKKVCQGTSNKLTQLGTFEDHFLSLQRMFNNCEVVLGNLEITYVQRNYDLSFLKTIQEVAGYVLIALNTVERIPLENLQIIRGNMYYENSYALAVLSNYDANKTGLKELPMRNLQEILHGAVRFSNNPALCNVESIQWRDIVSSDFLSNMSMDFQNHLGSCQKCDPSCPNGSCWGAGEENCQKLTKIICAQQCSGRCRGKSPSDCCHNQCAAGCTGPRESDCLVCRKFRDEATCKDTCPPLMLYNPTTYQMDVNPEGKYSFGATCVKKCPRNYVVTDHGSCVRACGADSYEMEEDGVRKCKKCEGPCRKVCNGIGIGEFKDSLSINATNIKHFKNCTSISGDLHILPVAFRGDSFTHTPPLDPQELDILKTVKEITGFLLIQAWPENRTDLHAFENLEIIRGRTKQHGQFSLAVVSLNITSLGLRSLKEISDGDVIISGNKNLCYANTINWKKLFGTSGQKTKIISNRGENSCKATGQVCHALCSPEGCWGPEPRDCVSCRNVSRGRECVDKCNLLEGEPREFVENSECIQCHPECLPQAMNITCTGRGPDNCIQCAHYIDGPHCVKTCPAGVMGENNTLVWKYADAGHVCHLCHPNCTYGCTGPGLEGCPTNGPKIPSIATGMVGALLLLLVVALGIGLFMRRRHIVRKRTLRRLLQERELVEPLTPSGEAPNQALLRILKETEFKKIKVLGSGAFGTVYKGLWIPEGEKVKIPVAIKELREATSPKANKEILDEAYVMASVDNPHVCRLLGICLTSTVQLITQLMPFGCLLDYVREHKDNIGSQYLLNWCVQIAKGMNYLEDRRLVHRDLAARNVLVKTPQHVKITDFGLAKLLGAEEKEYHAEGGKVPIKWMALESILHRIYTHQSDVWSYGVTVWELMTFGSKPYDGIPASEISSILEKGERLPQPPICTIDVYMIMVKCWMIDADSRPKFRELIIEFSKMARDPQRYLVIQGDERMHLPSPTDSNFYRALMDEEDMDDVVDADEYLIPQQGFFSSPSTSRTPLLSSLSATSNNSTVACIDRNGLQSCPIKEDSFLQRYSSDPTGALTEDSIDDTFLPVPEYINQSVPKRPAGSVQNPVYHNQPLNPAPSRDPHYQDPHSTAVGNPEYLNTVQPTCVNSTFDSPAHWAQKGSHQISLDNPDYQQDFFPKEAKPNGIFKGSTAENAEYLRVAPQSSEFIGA
Her2 receptor tyrosine kinase, sequence (P04626 23-1255): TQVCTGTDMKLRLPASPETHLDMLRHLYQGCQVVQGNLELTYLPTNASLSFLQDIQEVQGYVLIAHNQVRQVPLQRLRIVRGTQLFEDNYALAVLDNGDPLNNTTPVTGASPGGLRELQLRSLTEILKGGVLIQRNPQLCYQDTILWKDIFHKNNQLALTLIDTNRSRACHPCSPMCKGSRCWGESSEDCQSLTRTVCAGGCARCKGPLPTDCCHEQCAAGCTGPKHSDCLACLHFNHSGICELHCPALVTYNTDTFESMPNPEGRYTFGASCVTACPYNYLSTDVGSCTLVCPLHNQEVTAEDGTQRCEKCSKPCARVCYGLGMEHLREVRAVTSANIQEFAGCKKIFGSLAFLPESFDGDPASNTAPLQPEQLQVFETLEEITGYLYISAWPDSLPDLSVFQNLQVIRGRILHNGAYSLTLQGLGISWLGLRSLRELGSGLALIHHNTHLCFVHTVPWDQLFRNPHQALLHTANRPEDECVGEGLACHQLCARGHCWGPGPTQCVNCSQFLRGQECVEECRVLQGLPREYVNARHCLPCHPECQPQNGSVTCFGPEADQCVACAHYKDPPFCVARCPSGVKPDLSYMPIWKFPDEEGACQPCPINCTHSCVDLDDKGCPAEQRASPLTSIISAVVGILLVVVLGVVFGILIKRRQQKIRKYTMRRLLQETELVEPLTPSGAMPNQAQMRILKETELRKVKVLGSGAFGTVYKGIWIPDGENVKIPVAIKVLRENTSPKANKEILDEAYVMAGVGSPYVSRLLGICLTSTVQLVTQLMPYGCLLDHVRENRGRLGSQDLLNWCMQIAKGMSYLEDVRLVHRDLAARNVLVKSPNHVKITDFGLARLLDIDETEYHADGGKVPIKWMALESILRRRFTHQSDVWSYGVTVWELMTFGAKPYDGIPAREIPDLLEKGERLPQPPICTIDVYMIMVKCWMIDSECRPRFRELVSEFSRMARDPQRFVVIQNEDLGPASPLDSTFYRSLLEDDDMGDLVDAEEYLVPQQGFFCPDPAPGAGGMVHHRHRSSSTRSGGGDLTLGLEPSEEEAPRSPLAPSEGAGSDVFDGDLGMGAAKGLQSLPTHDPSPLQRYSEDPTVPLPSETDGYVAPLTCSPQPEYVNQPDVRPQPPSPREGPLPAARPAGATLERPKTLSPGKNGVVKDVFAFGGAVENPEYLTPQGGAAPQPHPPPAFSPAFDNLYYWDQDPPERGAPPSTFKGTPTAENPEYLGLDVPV
hERG potassium currents (IKr), sequence (Q12809 whole entry): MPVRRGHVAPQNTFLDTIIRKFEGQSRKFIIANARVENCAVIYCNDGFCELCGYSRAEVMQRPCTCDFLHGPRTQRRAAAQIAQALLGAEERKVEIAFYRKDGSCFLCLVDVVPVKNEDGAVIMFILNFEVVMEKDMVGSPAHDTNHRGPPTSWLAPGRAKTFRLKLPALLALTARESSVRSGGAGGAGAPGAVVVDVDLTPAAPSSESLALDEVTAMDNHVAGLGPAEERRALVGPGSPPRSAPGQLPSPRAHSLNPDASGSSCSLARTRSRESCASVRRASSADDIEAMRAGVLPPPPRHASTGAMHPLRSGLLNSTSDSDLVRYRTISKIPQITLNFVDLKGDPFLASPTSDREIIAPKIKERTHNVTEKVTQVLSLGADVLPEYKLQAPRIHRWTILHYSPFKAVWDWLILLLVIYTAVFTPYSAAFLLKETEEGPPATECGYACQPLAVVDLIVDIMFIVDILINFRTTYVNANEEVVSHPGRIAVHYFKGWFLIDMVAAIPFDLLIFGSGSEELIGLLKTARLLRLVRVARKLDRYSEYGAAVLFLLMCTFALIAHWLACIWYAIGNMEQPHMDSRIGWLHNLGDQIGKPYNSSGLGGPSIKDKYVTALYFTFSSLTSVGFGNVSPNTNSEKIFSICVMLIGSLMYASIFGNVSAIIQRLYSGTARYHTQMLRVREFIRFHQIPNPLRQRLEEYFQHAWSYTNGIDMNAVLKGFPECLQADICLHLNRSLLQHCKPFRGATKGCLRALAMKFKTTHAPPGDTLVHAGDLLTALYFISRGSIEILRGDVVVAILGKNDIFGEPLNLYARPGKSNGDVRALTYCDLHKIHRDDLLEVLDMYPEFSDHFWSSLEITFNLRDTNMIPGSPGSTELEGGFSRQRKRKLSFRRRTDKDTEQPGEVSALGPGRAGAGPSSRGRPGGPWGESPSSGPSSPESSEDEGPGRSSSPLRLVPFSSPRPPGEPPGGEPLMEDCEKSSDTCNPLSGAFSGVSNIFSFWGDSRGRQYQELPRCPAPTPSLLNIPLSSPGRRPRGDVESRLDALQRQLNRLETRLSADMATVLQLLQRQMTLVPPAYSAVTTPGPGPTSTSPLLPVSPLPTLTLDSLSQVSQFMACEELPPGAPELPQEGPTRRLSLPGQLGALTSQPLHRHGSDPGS

As for `NS(=O)(=O)CCNCc1ccc(-c2ccc3ncnc(Nc4ccc(OCc5cccc(F)c5)c(Cl)c4)c3c2)o1` [Compound 1, N-(4-(3-fluorobenzyloxy)-3-chlorophenyl)-6-(5-((2-(sulfamoyl)ethylamino)methyl)-2-furyl)-quinazolin-4-amine], the IC50 in series [1] was 1.55 nM.

Take `C[S+]([O-])CCNCc1ccc(-c2ccc3ncnc(Nc4ccc(OCc5cccc(F)c5)c(Cl)c4)c3c2)o1` (centres unmarked) [Compound 2, N-(4-(3-fluorobenzyloxy)-3-chlorophenyl)-6-(5-((2-(methylsulfinyl)ethylamino)methyl)-2-furyl)-quinazolin-4-amine]: the IC50 in series [2] came to 52.7 nM. In [3], the “AUC0-t ± SD” value was 50299 ± 12863 ng·h/mL, the “AUC0-∞ ± SD” value amounted to 53236 ± 12248 ng·h/mL, the “Cmax ± SD” value was 8881 ± 2061 ng/mL and the “MRT ± SD” value was found to be 5.38 ± 0.59 h. In [3], the “T1/2 ± SD” value is recorded as 2.32 ± 0.5 h and the “Tmax ± SD” value is 3.5 ± 1.0 h. The IC50 in series [4] (read-out: semi-effective inhibition dose IC50 for IKr pulse current) worked out at 10100 ± 960 nM. Also, in [4] (read-out: semi-effective inhibition dose IC50 for tail current), the IC50 is roughly 9240 nM.

Consider `CSCCNCc1ccc(-c2ccc3ncnc(Nc4ccc(OCc5cccc(F)c5)c(Cl)c4)c3c2)o1` [Compound 3, N-(4-(3-fluorobenzyloxy)-3-chlorophenyl)-6-(5-((2-(methylthio)ethylamino)methyl)-2-furyl)-quinazolin-4-amine], for which the IC50 in series [2] is 56.2 nM; in series [1] it was 34.6 nM; in series [5], 24.9 nM; in [6], 23.4 nM. Also, the “RTV (relative tumor volume)” value is 0.743 in [7]; 2.7 in series [8]; 6.9 in series [9] (50 mg/kg intragastrically); 6.5 in [9] (100 mg/kg intragastrically); 4.4 in [9] (200 mg/kg intragastrically). Further, the “Rate of tumor inhibition d21 (%)” value in [7] is reported as 84.6%; in series [8], 75%; in series [9] (50 mg/kg intragastrically), 32%; in series [9] (100 mg/kg intragastrically), 36%; in series [9] (200 mg/kg intragastrically), 56%. In series [7], the “d28 Vave (tumor volume)” value is 143.01. Besides, the “Animal number in each group: Partial regression” value (“Animal number in each group” below) worked out at 4 in series [7]; 0 in series [8]; 0 in series [9] (50 mg/kg intragastrically); 0 in [9] (100 mg/kg intragastrically); 0 in [9] (200 mg/kg intragastrically). Moreover, the “d21 Vave (tumor volume)” value in series [8] is 334.8 mm^3; in series [9] (50 mg/kg intragastrically), 830.7 mm^3; in series [9] (100 mg/kg intragastrically) it was 778.6 mm^3; in series [9] (200 mg/kg intragastrically), 612.6 mm^3.

For the molecule `CS(=O)(=O)NCCNCc1ccc(-c2ccc3ncnc(Nc4ccc(OCc5cccc(F)c5)c(Cl)c4)c3c2)o1` [Compound 4, N-(4-(3-fluorobenzyloxy)-3-chlorophenyl)-6-(5-((2-(methylsulfonamido)ethylamino)methyl)-2-furyl)-quinazolin-4-amine], the IC50 in series [2] is 15.5 nM; in [1] it was 7.06 nM.

Take `O=S(=O)(CCNCc1ccc(-c2ccc3ncnc(Nc4ccc(OCc5cccc(F)c5)c(Cl)c4)c3c2)o1)CC(F)(F)F` [Compound 5, N-(4-(3-fluorobenzyloxy)-3-chlorophenyl)-6-(5-((2-(2,2,2-trifluoroethylsulfonyl)ethylamino)methyl)-2-furyl)-quinazolin-4-amine]: the IC50 in [2] is 14.6 nM. In series [1], this molecule came in with an IC50 of 8.08 nM. Besides, the IC50 in [5] stood at 33.7 nM. Besides, the IC50 in [6] stood at 18.8 nM. In [7], the “RTV (relative tumor volume)” value came out at 2.574, the “Rate of tumor inhibition d21 (%)” value is listed as 46.8%, the “d28 Vave (tumor volume)” value was 414.78 and the “Animal number in each group” value is recorded as 1. Also, in series [8], the “RTV (relative tumor volume)” value was determined as 5.8, the “Rate of tumor inhibition d21 (%)” value came out at 45%, the “d21 Vave (tumor volume)” value is 770.9 mm^3 and the “Animal number in each group” value came to 0.

Turning to `O=S(=O)(CCNCc1ccc(-c2ccc3ncnc(Nc4ccc(OCc5cccc(F)c5)c(Cl)c4)c3c2)o1)C(F)(F)F` [Compound 6, N-(4-(3-fluorobenzyloxy)-3-chlorophenyl)-6-(5-((2-(trifluoromethylsulfonyl)ethylamino)methyl)-2-furyl)-quinazolin-4-amine], the IC50 is 32.4 nM in [2], 25.6 nM in [1], 54.6 nM in series [5] and 49.7 nM in [6].

With `CS(=O)(=O)CCNCc1ccc(-c2ccc3ncnc(Nc4ccc(OCc5cccc(F)c5)c(Cl)c4)c3c2)o1` [Compound 61, N-(4-(3-fluorobenzyloxy)-3-chlorophenyl)-6-(5-((2-(methylsulfonyl)ethylamino)methyl)-2-furyl)-quinazolin-4-amine, reference compound], the “biological activity results in the same test (in words)” value in [5] (same test as Table 1 (cell proliferation inhibition, N87 and BT474), comparison in words) is listed as “close to those of compound 6”. In series [7], the “Rate of tumor inhibition d21 (%)” value stood at 89.8%, the “d28 Vave (tumor volume)” value turned out to be 106.20 and the “Animal number in each group” value stood at 5. In addition, in [8], the “Rate of tumor inhibition d21 (%)” value turned out to be 79%, the “d21 Vave (tumor volume)” value was determined as 291.0 mm^3 and the “Animal number in each group” value amounted to 1. For the same molecule, in series [9] (200 mg/kg intragastrically), the “Rate of tumor inhibition d21 (%)” value is recorded as 75%, the “d21 Vave (tumor volume)” value turned out to be 350.1 mm^3 and the “Animal number in each group” value was found to be 0. In series [3], the “AUC0-t ± SD” value is 26908 ± 9085 ng·h/mL, the “AUC0-∞ ± SD” value was 26921 ± 9092 ng·h/mL, the “Cmax ± SD” value worked out at 3902 ± 1208 ng/mL and the “MRT ± SD” value turned out to be 5.52 ± 0.90 h. Further, in [3], the “T1/2 ± SD” value turned out to be 1.91 ± 0.45 h and the “Tmax ± SD” value turned out to be 2.5 ± 0.6 h.
